Among the data in PubChem BioAssay AID504497 (Sanford-Burnham Center for Chemical Genomics, 2011) are IC50 values, retold here.

The experiment addresses Sentrin-specific protease 7 (Homo sapiens) (UniProt Q9BQF6). In words: SENP7 protease inhibitors, SAR follow-up, biochemical, luminescence (AID 504497). To be noted: recombinant SENP7, Z-RLRGG-aminoluciferin luminescence.

Chain of Sentrin-specific protease 7 (Homo sapiens) (Q9BQF6 706-1050 limits assumed): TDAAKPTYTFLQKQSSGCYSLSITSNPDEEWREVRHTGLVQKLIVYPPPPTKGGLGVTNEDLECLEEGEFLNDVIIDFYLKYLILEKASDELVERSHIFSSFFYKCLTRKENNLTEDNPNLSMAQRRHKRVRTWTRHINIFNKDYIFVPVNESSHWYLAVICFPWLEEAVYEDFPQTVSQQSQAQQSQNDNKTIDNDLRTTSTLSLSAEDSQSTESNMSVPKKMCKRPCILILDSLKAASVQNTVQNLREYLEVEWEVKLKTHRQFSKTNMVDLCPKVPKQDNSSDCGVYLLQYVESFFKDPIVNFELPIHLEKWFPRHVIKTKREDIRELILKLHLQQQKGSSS

As a reminder, the IC50 is the concentration that gives 50% inhibition. With `N#Cc1c(NC(=O)CSc2ncn[nH]2)sc2c1CCCCC2`, the IC50 is 5.66 µM.
